Among the data in patent US20190134005A1 (BioMarin Pharmaceutical Inc., priority 2016, published 2019) are IC50 values, retold here.

The target in test [1] is T1, human CGT (Homo sapiens, UniProt Q16880).
T1 sequence (Q16880 21-541): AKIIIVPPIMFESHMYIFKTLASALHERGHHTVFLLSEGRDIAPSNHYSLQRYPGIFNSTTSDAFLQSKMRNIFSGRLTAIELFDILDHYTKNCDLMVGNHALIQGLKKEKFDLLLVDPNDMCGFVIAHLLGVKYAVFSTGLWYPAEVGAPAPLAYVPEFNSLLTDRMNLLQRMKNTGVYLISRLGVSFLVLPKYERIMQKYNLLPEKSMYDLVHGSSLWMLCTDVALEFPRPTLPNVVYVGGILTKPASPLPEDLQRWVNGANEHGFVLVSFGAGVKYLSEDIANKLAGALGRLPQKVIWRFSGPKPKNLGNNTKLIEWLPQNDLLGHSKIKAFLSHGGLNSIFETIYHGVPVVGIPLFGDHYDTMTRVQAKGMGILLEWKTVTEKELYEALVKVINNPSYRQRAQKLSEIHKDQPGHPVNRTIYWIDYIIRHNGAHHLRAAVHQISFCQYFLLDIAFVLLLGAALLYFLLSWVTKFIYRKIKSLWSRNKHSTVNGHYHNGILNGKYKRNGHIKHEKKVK
The test can be described thus: CGT Enzyme Assay (Biological Example 2, RapidFire/MS/MS method with 0.01% Tween 80 added). Format: biochemical. As to conditions: enzymatic assay, CHO/CGT lysate. The procedure:
Full-length human CGT cDNA was cloned into the BamH1/Xho1 site of pcDNA3.1 (+) mammalian expression vector (V90-20, Invitrogen, Carlsbad, Calif.) and the plasmid was transfected into Chinese hamster ovary (CHO) cells. Lysate was prepared using M-PER (Mammalian Protein Extraction Reagent, ThermoFisher Scientific, Grand Island, N.Y.) in the presence of a protease inhibitor cocktail (P8340, Sigma, Saint Louis, Mo.). Each 100 mm dish (100% confluent, approximately 1×10^7 cells) was lysed with 250 μL of M-PER containing protease inhibitors. Protein concentration was determined using a Pierce BCA protein assay kit (ThermoFisher Scientific). […] The final concentration of DMSO was 0.5% in both compound-treated and mock-treated samples. Each individual reaction was diluted with 80 μL of methanol:acetronitrile (1:3) containing 5 μM N-docdecanoyl-NBD-galactosylceramide (internal standard) to stop the reaction. 200 μL H2O:acetonitile (1:1) was added to precipitate the protein. After sufficient mixing, the plates were centrifuged at 2469 g for 38 minutes, 200 μl of supernatant was transferred to a LC-MS 96-deep well plate and a second spin was performed at 2469 g for 10 minutes. The final supernatant was injected in triplicate for RapidFire/MS/MS analysis.
The quantitative analysis of C6-NBD-dihydro-ceramide and C6-NBD-dihydro-galactosylceramide was performed on a Rapid Fire 360 high-throughput mass spectrometry system (Agilent Technologies, Palo Alto, Calif.) coupled with a API4000^+ triple quadrupole mass spectrometer (Applied Biosystems, Concord, Ontario, Canada). RapidFire software packages, including RapidFire Control panel, RapidFire UI and RapidFire Integrator (Agilent Technologies), were used to control the RapidFire instrument and to process data. Analyst 1.6.2 software packages (Applied Biosystems) were used to control the MS system and acquire MS data. 10 μL of sample was loaded on a micro-scale C4 solid-phase extraction (SPE) cartridge (Agilent Technologies) and salts were removed using water supplemented with 0.1% formic acid at the flow rate of 1.5 mL/min for 3 sec. C6-NBD-dihydro-ceramide and C6-NBD-dihydro-galactosylceramide were co-eluted into the mass spectrometer using acetonitrile containing 0.1% formic acid at the flow rate of 1.0 mL/min for 3 sec. The total cycle time of one injection was 8 secs. The MS/MS detection was performed in ESI negative mode.
The C6-NBD-dihydro-galactosylceramide reading was normalized first by dividing the peak area of C6-NBD-dihydro-galactosylceramide by the peak area of the internal standard, N-docdecanoyl-NBD-galactosylceramide.

Test [2] concerns the target T1, human CGT. Put plainly: Assay 1: CGT Enzymatic Assay (RapidFire/MS/MS, 0.01% Tween 80). Type of test: biochemical. The conditions noted are these: Table 1, Compounds of Formula (I) and Formula (II), CGT enzymatic assay, read-out: IC50.

At human CGT [1], `Cc1ccc(N2C(=O)N(c3ccc(C#N)cc3)[C@@H](c3cccc(C#N)c3)C23COC3)cc1` [Example 55-2, (S)-3-(7-(4-cyanophenyl)-6-oxo-5-(p-tolyl)-2-oxa-5,7-diazaspiro[3.4]octan-8-yl)benzonitrile] registered an IC50 of 1 to 10 µM.

`O=C1N(c2ccc(Cl)cc2)C2CCCCC2(c2cccc(OC(F)(F)F)c2)N1c1ccc(Cl)cc1` (stereo not drawn) [Example 15-1, 1,3-bis(4-chlorophenyl)-3a-(3-(trifluoromethoxy)phenyl)octahydro-2H-benzo[d]imidazol-2-one] had a half-maximal inhibitory concentration (IC50) against human CGT [1] of 10 to 30 µM.

The compound `CCC[C@@]1(C)[C@@H](c2cccc(C#N)c2)N(c2ccc(Cl)cc2)C(=O)N1c1ccc(Cl)cc1` [Example 33-4, 3-((4R,5S)-1,3-bis(4-chlorophenyl)-5-methyl-2-oxo-5-propylimidazolidin-4-yl)benzonitrile] had a half-inhibitory concentration (IC50) at human CGT [1] below 1 µM.

Turning to `CCC[C@]1(C)[C@H](c2cccc(OC(F)(F)F)c2)N(c2ccc(C#N)cc2)C(=O)N1c1ccc(C#N)cc1` [Example 52-2, 4,4′-((4R,5S)-4-methyl-2-oxo-4-propyl-5-(3-(trifluoromethoxy)phenyl)imidazolidine-1,3-diyl)dibenzonitrile], the 50% inhibitory concentration (IC50) against human CGT [1] is below 1 µM.

In turn, `CC1(C)[C@@H](c2cccc(OC(F)(F)F)c2)N(c2ccc(C(F)(F)F)cc2)C(=O)N1c1ccc(C(F)(F)F)cc1` [Example 20-1, (R)-4,4-dimethyl-5-(3-(trifluoromethoxy)phenyl)-1,3-bis(4-(trifluoromethyl)phenyl)imidazolidin-2-one] showed a half-maximal inhibitory concentration (IC50) against human CGT [1] below 1 µM.

`Cc1cccc(C2C(C)N(c3ccc(Cl)cc3)C(=O)N2c2ccc(Cl)cc2)c1` (stereo not drawn) [Example 3] displayed an IC50 against human CGT [1] of 30 to 100 µM.

Consider `CC[C@@]1(C)[C@H](c2cccc(OC(F)(F)F)c2)N(c2ccc(C#N)cc2)C(=O)N1c1ccc(C#N)cc1` [Example 51-5, 4,4′-((4S,5S)-4-ethyl-4-methyl-2-oxo-5-(3-(trifluoromethoxy)phenyl)imidazolidine-1,3-diyl)dibenzonitrile], for which the half-inhibitory concentration (IC50) at human CGT [1] was 1 to 10 µM.

Compound `Cc1ccc(N2C(=O)N(c3ccc(C#N)cc3)[C@H](c3cccc(OC(F)(F)F)c3)C2(C)C)cc1` [Example 50-1, (R)-4-(4,4-dimethyl-2-oxo-3-(p-tolyl)-5-(3-(trifluoromethoxy)phenyl)imidazolidin-1-yl)benzonitrile] gave a 50% inhibitory concentration (IC50) against human CGT [1] below 1 µM.

`O=C1N(c2ccc(Cl)cc2)[C@H]2CCC[C@@]2(c2cccc(OC(F)F)c2)N1c1ccc(Cl)cc1` [Example 23-1, (3aS,6aS)-1,3-bis(4-chlorophenyl)-3a-(3-(difluoromethoxy)phenyl)hexahydrocyclopenta[d]imidazol-2(1H)-one] yielded a 50% inhibitory concentration (IC50) on human CGT [1] of 10 to 30 µM.

Compound `Cc1ccc(N2C(=O)N(c3ccc(C)cc3)C(C)(C)[C@H]2c2cccc(OC(F)(F)F)c2)cc1` [Example 21-1, (R)-4,4-dimethyl-1,3-di-p-tolyl-5-(3-(trifluoromethoxy)phenyl)imidazolidin-2-one] displayed an IC50 on human CGT [1] of 1 to 10 µM.

In turn, `CC1(C)[C@@H](c2cccc(OC(F)(F)F)c2)N(c2ccccc2)C(=O)N1c1ccccc1` [Example 26-1, (R)-4,4-dimethyl-1,3-diphenyl-5-(3-(trifluoromethoxy)phenyl)imidazolidin-2-one] displayed a half-inhibitory concentration (IC50) on human CGT [1] of 10 to 30 µM.

On to `CC[C@]1(C)[C@H](c2cccc(C#N)c2)N(c2ccc(Cl)cc2)C(=O)N1c1ccc(Cl)cc1` [Example 34-4, 3-((4S,5R)-1,3-bis(4-chlorophenyl)-5-ethyl-5-methyl-2-oxoimidazolidin-4-yl)benzonitrile], for which the IC50 against human CGT [1] was in the range of 10 to 30 µM.

In turn, `CCC[C@@]1(C)[C@H](c2cccc(OC(F)(F)F)c2)N(c2ccc(C#N)cc2)C(=O)N1c1ccc(C#N)cc1` [Example 52-5, 4,4′-((4S,5S)-4-methyl-2-oxo-4-propyl-5-(3-(trifluoromethoxy)phenyl)imidazolidine-1,3-diyl)dibenzonitrile] had an IC50 at human CGT [1] below 1 µM.

On to `CC1(C)C(c2cccc(OC(F)(F)F)c2)N(c2ccc(Cl)cc2)C(=O)N1c1ccc(Cl)cc1` (stereo not drawn) [Example 7], for which, at human CGT [1], the half-maximal inhibitory concentration (IC50) was below 1 µM.

As for `N#Cc1cccc([C@H]2N(c3ccc(Cl)cc3)C(=O)N(c3ccc(Cl)cc3)C23COC3)c1` [Example 30-1, (R)-3-(5,7-bis(4-chlorophenyl)-6-oxo-2-oxa-5,7-diazaspiro[3.4]octan-8-yl)benzonitrile], the half-maximal inhibitory concentration (IC50) against human CGT [1] lay in the range of 10 to 30 µM.

For `C[C@@H]1N(c2ccc(F)cc2)C(=O)N(c2ccc(F)cc2)C1(O)c1cccc(OC(F)(F)F)c1` (stereo partly drawn) [Compound 130-1, (5S)-1,3-bis(4-fluorophenyl)-4-hydroxy-5-methyl-4-(3-(trifluoromethoxy)phenyl)imidazolidin-2-one], the 50% inhibitory concentration (IC50) at human CGT [2] was below 1 µM.

For the compound `Cc1ccc(N2CC(O)(c3ccccc3)N(c3ccc(C)cc3)C2=O)cc1` (stereo not drawn) [Example 17, 4-hydroxy-4-phenyl-1,3-di-p-tolylimidazolidin-2-one], the IC50 at human CGT [2] fell in the range of 1 to 10 µM.

Take `O=C1N(c2ccc(Cl)cc2)CC(O)(c2cccc(Br)c2)N1c1ccc(Cl)cc1` (stereo not drawn) [Example 55, 4-(3-bromophenyl)-1,3-bis(4-chlorophenyl)-4-hydroxyimidazolidin-2-one]: at human CGT [2], the IC50 was 1 to 10 µM.

As for `CC[C@]1(C)N(c2ccc(Cl)cc2)C(=O)N(c2ccc(Cl)cc2)C1(O)c1cccc(C#N)c1` (single isomer, unassigned) [Example 185-2], at human CGT [2], the IC50 is below 1 µM.

For `CC[C@@H]1N(c2ccc(Cl)cc2)C(=O)N(c2ccc(Cl)cc2)C1(O)c1cccc(Cl)c1` (stereo partly drawn) [Compound 81-1, (5S)-4-(3-chlorophenyl)-1,3-bis(4-chlorophenyl)-5-ethyl-4-hydroxyimidazolidin-2-one], the IC50 on human CGT [2] is below 1 µM.

`Cc1cc(C)cc(C2(O)C(C)N(c3ccc(Br)cc3)C(=O)N2c2ccc(Br)cc2)c1` (stereo not drawn) [Example 42]: at human CGT [2], the concentration for half-maximal inhibition (IC50) was below 1 µM.

Turning to `C#Cc1cccc(C2(O)[C@@H](C)N(c3ccc(Cl)cc3)C(=O)N2c2ccc(Cl)cc2)c1` (stereo partly drawn) [Compound 93-2, (5R)-1,3-bis(4-chlorophenyl)-4-(3-ethynylphenyl)-4-hydroxy-5-methylimidazolidin-2-one], the concentration for half-maximal inhibition (IC50) at human CGT [2] is below 1 µM.

As to `Cc1ccc(N2C(=O)N(c3ccc(C)cc3)C(O)(c3cccc(OC(F)(F)F)c3)C23CCCC3)cc1` (stereo not drawn) [Example 327, 4-hydroxy-1,3-di-p-tolyl-4-(3-(trifluoromethoxy)phenyl)-1,3-diazaspiro[4.4]nonan-2-one], on human CGT [2] (C6-NBD-dihydro-galactosylceramide readout), the IC50 is below 1 µM.

`CCC[C@@]1(C)N(c2ccc(Cl)cc2)C(=O)N(c2ccc(Cl)cc2)C1(O)c1cccc(OC(F)(F)F)c1` (single isomer, unassigned) [Example 170-1]: the IC50 on human CGT [2] fell in the range of 10 to 50 µM.

`CCC[C@@H]1N(c2ccc(Cl)cc2)C(=O)N(c2ccc(Cl)cc2)C1(O)c1cccc(C)c1` (stereo partly drawn) [Compound 90-1, (5S)-1,3-bis(4-chlorophenyl)-4-hydroxy-5-propyl-4-(m-tolyl)imidazolidin-2-one]: the concentration for half-maximal inhibition (IC50) on human CGT [2] is below 1 µM.

For `O=C1N(c2ccc(Cl)cc2)C(C2COC2)C(O)(c2cccc(OC(F)(F)F)c2)N1c1ccc(Cl)cc1` (stereo not drawn) [Compound 237, 1,3-bis(4-chlorophenyl)-4-hydroxy-5-(oxetan-3-yl)-4-(3-(trifluoromethoxy)phenyl)imidazolidin-2-one], the IC50 on human CGT [2] was below 1 µM.

Regarding `O=C1N(c2ccc(Cl)cc2)C2(CC2)C(O)(c2cccc(C(F)(F)F)c2)N1c1ccc(Cl)cc1` (stereo not drawn) [Example 225, 4,6-bis(4-chlorophenyl)-7-hydroxy-7-(3-(trifluoromethyl)phenyl)-4,6-diazaspiro[2.4]heptan-5-one], the IC50 on human CGT [2] was below 1 µM.
